How the values were obtained:
Assay type in all cases: physicochemical
apoaequorin [1] = molecular target: T1, apoaequorin (Aequorea victoria, UniProt P07164); experiment: Fluorescence spectra of semi-synthetic BFP (coelenteramide analogue + apoaequorin, CaCl2); details: 10 mM CaCl2 buffer, excitation 337 nm
T1 construct: purchased Chisso Corporation
Method: Semi-synthetic gFP was prepared from recombinant apoaequorin and coelenteramide analogues as follows. In 1 ml of 50 mM Tris-HC 1 (pH 7.6) containing 10 mM CaCl2 and 1 mM DTT, apoaequorin (0.2 mg) was mixed with 8 μl of a coelenteramide analogue (1 μg/μl in anhydrous methanol). The mixture was allowed to stand at 4° C. for 16 hours to prepare semi-synthetic BFP-like protein (hereinafter sometimes simply referred to as “semi-synthetic BFP”).
(§1) The fluorescence spectra were determined as follows. For coelenteramide analogue alone, the fluorescence was measured according to the procedures for semi-synthetic gFP and semi-synthetic BFP described in EXAMPLES 11 and 12, except for in the absence of apoaequorin, using 1 ml of 50 mM Tris-HCl (pH 7.6) containing 10 mM EDTA and 1 mM DTT or 1 ml of 50 mM Tris-HCl (pH 7.6) containing 10 mM CaCl2 and 1 mM DTT, in the final concentration of coelenteramide analogue adjusted to 8 μg/ml. The fluorescence spectra were measured at 25° C. in a quartz cell (10 mm light path length) using a Jasco FP-6500 spectrofluorometer (excitation wavelength: 337 nm, emission/excitation bandwidth: 3 nm; response: 0.5 sec, scan speed, 1000 nm/min).

apoaequorin [2] = molecular target: T1, apoaequorin; experiment: Fluorescence spectra of semi-synthetic gFP (coelenteramide analogue + apoaequorin, EDTA); details: 10 mM EDTA buffer, excitation 337 nm
Method: Semi-synthetic gFP was prepared from recombinant apoaequorin and coelenteramide analogues as follows. In 1 ml of 50 mM Tris-HC 1 (pH 7.6) containing 10 mM EDTA and 1 mM DTT, apoaequorin (0.2 mg) was mixed with 8 μl of a coelenteramide analogue (1 μg/μl in anhydrous methanol). The mixture was allowed to stand 4° C. for 16 hours to prepare semi-synthetic gFP-like protein (hereinafter sometimes simply referred to as “semi-synthetic gFP”).
as §1

[3] = Fluorescence spectra of coelenteramide analogue alone (absence of apoaequorin); details: analogue alone 8 μg/ml; for Coelenteramide (Buffer containing CaCl2) Fluorescence intensity (rlu) / Coelenteramide (Buffer containing CaCl2) Maximum fluorescence wavelength λmax (nm): 10 mM CaCl2 buffer pH 7.6, excitation 337 nm; for Coelenteramide (EDTA-containing buffer) Fluorescence intensity (rlu) / Coelenteramide (EDTA-containing buffer) Maximum fluorescence wavelength λmax (nm): 10 mM EDTA buffer pH 7.6, excitation 337 nm
Method: as §1

T1 sequence (P07164 other isoform, or with tags, fused parts or gaps with the stated changes): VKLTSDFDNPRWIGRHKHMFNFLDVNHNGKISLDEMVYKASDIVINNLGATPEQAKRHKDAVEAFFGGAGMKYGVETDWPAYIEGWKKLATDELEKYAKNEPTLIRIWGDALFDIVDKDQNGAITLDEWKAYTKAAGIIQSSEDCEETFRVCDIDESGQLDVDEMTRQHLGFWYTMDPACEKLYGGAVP

SMILES | Fluorescence intensity (apoaequorin [1]) | Semi-synthetic BFP (Buffer containing CaCl2) Maximum fluorescence wavelength λmax (nm) (apoaequorin [1]) | Semi-synthetic gFP (EDTA-containing buffer) Fluorescence intensity (rlu) (apoaequorin [2]) | Semi-synthetic gFP (EDTA-containing buffer) Maximum fluorescence wavelength λmax (nm) (apoaequorin [2]) | Coelenteramide (Buffer containing CaCl2) Fluorescence intensity (rlu) [3] | Coelenteramide (Buffer containing CaCl2) Maximum fluorescence wavelength λmax (nm) [3] | Coelenteramide (EDTA-containing buffer) Fluorescence intensity (rlu) [3] | Coelenteramide (EDTA-containing buffer) Maximum fluorescence wavelength λmax (nm) [3]
O=C(Cc1ccc(O)cc1)Nc1ncc(-c2ccc(O)cc2)nc1-c1cc2sc3ccsc3c2s1 [Compound 4l, 2-(4-Hydroxyphenyl)-N-[5-(4-hydroxyphenyl)-3-(thieno[3,2-b:2′,3′-d]thiophen-2-yl)pyrazin-2-yl]acetamide] | 63.5 rlu | 468.0 nm | 140.5 rlu | 524.5 nm | 8.8 rlu | 523.0 nm | 9.3 rlu | 523.5 nm
O=C(Cc1ccc(O)cc1)Nc1ncc(-c2ccc(O)cc2)nc1C#Cc1ccccc1 [Compound 4p, 2-(4-Hydroxyphenyl)-N-[5-(4-hydroxyphenyl)-3-(phenylethynyl)pyrazin-2-yl]acetamide] | 70.0 rlu | 548.5 nm | 21.1 rlu | 523.0 nm | 5.4 rlu | 484.5 nm | 5.3 rlu | 476.0 nm
CC(C(=O)Nc1ncc(-c2ccc(O)cc2)nc1Cc1ccccc1)c1ccc(O)cc1 (stereo not drawn) [Compound 4w, N-[3-Benzyl-5-(4-hydroxyphenyl)pyrazin-2-yl]-2-(4-hydroxyphenyl)propanamide] | 181.4 rlu | 466.0 nm | 54.6 rlu | 487.0 nm | 1.4 rlu | 450.5 nm | 1.3 rlu | 451.0 nm
Oc1ccc(NC(=S)Nc2ncc(-c3ccc(O)cc3)nc2Cc2ccccc2)cc1 [Compound 4v, 1-[3-Benzyl-5-(4-hydroxyphenyl)pyrazin-2-yl]-3-(4-hydroxyphenyl)thiourea] | 3.3 rlu | 430.5 nm | 3.6 rlu | 491.0 nm | 1.4 rlu | 466.0 nm | 1.4 rlu | 484.0 nm
O=C(Cc1ccc(O)cc1)Nc1ncc(-c2ccc(O)cc2)nc1Br [Compound 4t, N-[3-Bromo-5-(4-hydroxyphenyl)pyrazin-2-yl]-2-(4-hydroxyphenyl)acetamide] |  |  | 22.0 rlu | 482.5 nm | 12.1 rlu | 482.0 nm | 11.8 rlu | 480.5 nm
O=C(Cc1ccc(O)cc1)Nc1ncc(-c2ccc(O)cc2)nc1-c1ccc2ccccc2c1 [Compound 4e, 2-(4-Hydroxyphenyl)-N-[5-(4-hydroxyphenyl)-3-(naphthalen-2-yl)pyrazin-2-yl]acetamide] | 85.6 rlu | 492.5 nm | 72.6 rlu | 487.0 nm | 28.6 rlu | 478.0 nm | 28.9 rlu | 478.0 nm
O=C(Nc1ccc(O)cc1)Nc1ncc(-c2ccc(O)cc2)nc1Cc1ccccc1 [Compound 4u, 1-[3-Benzyl-5-(4-hydroxyphenyl)pyrazin-2-yl]-3-(4-hydroxyphenyl)urea] |  |  | 11.4 rlu | 494.5 nm | 0.9 rlu | 445.5 nm | 0.7 rlu | 440.5 nm
O=C(Nc1ncc(-c2ccc(O)cc2)nc1Cc1ccccc1)c1cccc(O)c1 [Compound 4y, N-[3-Benzyl-5-(4-hydroxyphenyl)pyrazin-2-yl]-3-hydroxybenzamide] |  |  | 44.8 rlu | 492.0 nm | 1.4 rlu | 457.0 nm | 1.3 rlu | 456.0 nm
CN(C)c1ccc(-c2nc(-c3ccc(O)cc3)cnc2NC(=O)Cc2ccc(O)cc2)cc1 [Compound 4n, N-[3-{4-(Dimethylamino)phenyl}-5-(4-hydroxyphenyl)pyrazin-2-yl]-2-(4-hydroxyphenyl)acetamide] | 231.3 rlu | 487.5 nm | 151.5 rlu | 485.5 nm |  |  |  | 
O=C(Cc1ccc(O)cc1)Nc1ncc(-c2ccc(O)cc2)nc1-c1ccc(-c2cccs2)s1 [Compound 4m, N-[3-(2,2′-Bithiophen-5-yl)-5-(4-hydroxyphenyl)pyrazin-2-yl]-2-(4-hydroxyphenyl) acetamide] | 182.4 rlu | 457.5 nm | 163.8 rlu | 482.5 nm |  |  |  | 
O=C(Cc1ccc(O)cc1)Nc1ncc(-c2ccc(O)cc2)nc1-c1cc2ccccc2s1 [Compound 4h, N-[3-(Benzo[b]thiophen-2-yl)-5-(4-hydroxyphenyl)pyrazin-2-yl]-2-(4-hydroxyphenyl) acetamide] | 153.3 rlu | 427.0 nm |  |  | 101.2 rlu | 426.5 nm | 115.2 rlu | 426.5 nm
O=C(Nc1ncc(-c2ccc(O)cc2)nc1Cc1ccccc1)c1ccc(O)cc1 [Compound 4x, N-[3-Benzyl-5-(4-hydroxyphenyl)pyrazin-2-yl]-4-hydroxybenzamide] | 36.8 rlu | 485.0 nm |  |  | 1.4 rlu | 450.0 nm | 1.3 rlu | 449.0 nm
